Peptide text beside a SMILES is read from it.
Experiments:
[1] = molecular target: T1, Beta-adrenergic receptor kinase 1 (Bos taurus, UniProt P21146); assay: Inhibition of bovine cerebral cortex GRK2 assessed as decrease in phosphorylation of beta-adrenoceptor in presence of [gamma-32P]-ATP by SDS-PAGE analysis
T1 sequence (P21146 whole entry): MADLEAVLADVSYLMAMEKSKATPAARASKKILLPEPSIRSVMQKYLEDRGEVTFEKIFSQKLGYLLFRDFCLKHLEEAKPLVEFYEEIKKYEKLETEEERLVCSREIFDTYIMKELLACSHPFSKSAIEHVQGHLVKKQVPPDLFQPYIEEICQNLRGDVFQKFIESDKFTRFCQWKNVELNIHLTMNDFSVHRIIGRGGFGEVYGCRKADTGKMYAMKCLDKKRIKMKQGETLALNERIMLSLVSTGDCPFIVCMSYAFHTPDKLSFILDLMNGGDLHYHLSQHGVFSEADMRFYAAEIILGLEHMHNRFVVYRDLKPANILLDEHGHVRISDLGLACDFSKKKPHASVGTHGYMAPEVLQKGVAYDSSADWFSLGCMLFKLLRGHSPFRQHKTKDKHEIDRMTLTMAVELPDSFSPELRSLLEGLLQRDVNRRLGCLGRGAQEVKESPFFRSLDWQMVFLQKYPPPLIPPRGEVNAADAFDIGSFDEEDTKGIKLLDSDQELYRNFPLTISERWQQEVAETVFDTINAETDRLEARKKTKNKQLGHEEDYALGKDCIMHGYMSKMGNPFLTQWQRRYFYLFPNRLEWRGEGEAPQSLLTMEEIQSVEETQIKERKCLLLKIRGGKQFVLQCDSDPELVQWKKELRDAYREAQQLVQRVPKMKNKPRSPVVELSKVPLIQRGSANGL

Rhodopsin kinase GRK1 = molecular target: T2, Rhodopsin kinase GRK1 (Bos taurus, UniProt P28327); assay: Inhibition of bovine C-terminal truncated GRK1 (535 residues) assessed as decrease in phosphorylation of urea-washed bovine rod outer segments preincubated for 30 mins followed by ATP addition and light exposure measured after 5 to 10 mins by SDS-PAGE analysis
T2 sequence (P28327 whole entry): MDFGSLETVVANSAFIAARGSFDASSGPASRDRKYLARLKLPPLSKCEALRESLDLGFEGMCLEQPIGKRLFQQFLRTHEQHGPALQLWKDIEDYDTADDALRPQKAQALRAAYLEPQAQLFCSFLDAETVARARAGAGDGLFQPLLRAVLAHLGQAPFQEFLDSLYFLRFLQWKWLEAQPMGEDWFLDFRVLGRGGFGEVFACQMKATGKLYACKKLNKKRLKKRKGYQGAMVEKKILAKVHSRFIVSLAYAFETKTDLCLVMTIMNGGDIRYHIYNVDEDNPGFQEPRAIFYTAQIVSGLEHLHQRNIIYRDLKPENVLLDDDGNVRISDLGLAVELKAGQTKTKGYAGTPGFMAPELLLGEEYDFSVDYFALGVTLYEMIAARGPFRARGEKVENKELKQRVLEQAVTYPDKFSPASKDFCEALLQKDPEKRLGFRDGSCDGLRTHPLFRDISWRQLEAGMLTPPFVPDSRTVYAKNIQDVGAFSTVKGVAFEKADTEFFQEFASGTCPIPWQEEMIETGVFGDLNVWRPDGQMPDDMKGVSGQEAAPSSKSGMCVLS

[2] = molecular target: T3, cGMP-dependent protein kinase 1 (Homo sapiens, UniProt Q13976); assay: Binding affinity to human recombinant N-terminal GST-tagged PKGalpha expressed in Baculovirus infected insect Sf9 cells using RKRSRAE as substrate in presence of [gamma-32P]ATP
T3 sequence (Q13976 whole entry): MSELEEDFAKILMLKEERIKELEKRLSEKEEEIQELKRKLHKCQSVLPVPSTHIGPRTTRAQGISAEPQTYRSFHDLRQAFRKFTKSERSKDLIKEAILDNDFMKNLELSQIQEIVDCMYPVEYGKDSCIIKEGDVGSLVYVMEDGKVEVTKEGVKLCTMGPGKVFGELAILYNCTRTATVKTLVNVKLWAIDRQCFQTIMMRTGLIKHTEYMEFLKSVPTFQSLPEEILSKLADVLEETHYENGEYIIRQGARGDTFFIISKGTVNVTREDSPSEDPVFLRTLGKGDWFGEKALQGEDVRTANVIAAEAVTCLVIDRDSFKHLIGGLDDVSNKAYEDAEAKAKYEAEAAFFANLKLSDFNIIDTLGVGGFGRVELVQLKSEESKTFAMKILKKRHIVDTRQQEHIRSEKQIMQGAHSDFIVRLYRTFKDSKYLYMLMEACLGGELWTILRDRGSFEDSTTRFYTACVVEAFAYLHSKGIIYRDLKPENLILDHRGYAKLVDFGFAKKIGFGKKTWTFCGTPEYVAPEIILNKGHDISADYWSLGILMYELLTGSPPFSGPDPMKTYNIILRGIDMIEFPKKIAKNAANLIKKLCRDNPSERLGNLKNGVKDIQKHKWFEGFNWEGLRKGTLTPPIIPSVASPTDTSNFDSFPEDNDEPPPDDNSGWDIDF

[3] = molecular target: Protein kinase C alpha type (Homo sapiens, UniProt P17252); assay: Binding affinity to PKCalpha (unknown origin) using Lys-Arg-Thr-Leu-Arg-Arg as substrate after 8 mins in presence of [gamma-32P]ATP by liquid scintillation spectrometry
[4] = molecular target: Protein kinase C beta type (Homo sapiens, UniProt P05771); assay: Binding affinity to PKCbeta2 (unknown origin) using Lys-Arg-Thr-Leu-Arg-Arg as substrate after 8 mins in presence of [gamma-32P]ATP by liquid scintillation spectrometry
Protein kinase C beta type, sequence (P05771 whole entry): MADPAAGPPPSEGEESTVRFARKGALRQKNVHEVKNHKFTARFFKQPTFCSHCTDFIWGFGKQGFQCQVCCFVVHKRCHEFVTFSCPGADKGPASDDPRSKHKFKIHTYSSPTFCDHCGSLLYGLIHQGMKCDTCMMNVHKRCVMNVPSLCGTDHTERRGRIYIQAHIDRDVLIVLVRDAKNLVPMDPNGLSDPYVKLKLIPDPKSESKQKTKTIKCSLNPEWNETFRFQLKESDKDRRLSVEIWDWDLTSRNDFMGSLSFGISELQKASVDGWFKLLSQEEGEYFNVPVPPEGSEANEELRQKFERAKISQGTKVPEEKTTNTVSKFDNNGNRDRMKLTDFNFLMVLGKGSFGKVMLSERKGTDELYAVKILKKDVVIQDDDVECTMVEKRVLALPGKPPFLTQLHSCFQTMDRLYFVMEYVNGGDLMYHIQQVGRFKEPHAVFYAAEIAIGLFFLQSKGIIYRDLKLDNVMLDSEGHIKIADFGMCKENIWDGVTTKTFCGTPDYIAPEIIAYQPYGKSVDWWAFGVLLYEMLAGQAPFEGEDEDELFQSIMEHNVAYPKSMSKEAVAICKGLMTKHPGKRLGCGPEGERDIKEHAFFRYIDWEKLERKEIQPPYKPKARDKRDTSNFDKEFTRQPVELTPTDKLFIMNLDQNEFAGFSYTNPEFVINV

| IC50 [1] [µM] | IC50 (Rhodopsin kinase GRK1) [µM] | Kd [2] [µM] | Kd [3] [µM] | Kd [4] [µM] | Compound |
| --- | --- | --- | --- | --- | --- |
| 1600 | – | – | – | – | CC(C)C[C@H](NC(=O)[C@H](CCCNC(=N)N)NC(=O)[C@H](CCC(=O)O)NC(=O)[C@H](Cc1ccccc1)NC(=O)[C@H](CCCCN)NC(=O)[C@H](C)N)C(=O)N[C@@H](CCC(N)=O)C(=O)N[C@H](C(=O)N[C@H](C(=O)N[C@H](C(=O)N[C@@H](CC(N)=O)C(=O)O)[C@@H](C)O)C(C)C)[C@@H](C)O (H-AKFERLQTVTN-OH) |
| – | 4.1 | 0.0016 | 0.0064 | 0.0018 | O=C(N[C@@H]1CNCCC[C@H]1OC(=O)c1cc(O)c(C(=O)c2c(O)cccc2C(=O)O)c(O)c1)c1ccc(O)cc1 [BALANOL] |
